Test results as given in patent US10251919B2, “Method for improving skin condition or anti-microorganisms or anti-oxidation using Lactobacillus sakei MD honeysuckle” (AMOREPACIFIC CORPORATION, priority 2015, dated 2019).
Values joined by “and” are separate entries in the source; they are usually repeats but may differ in a detail not shown here. Identical values can stand only once.

Columns and labels:
DPPH assay = type: biochemical; details: at 100 μM; 1 mL 0.2 mM DPPH, 30 minutes
Protocol: L-Ascorbic acid (Sigma Aldrich) was used as a positive control. […] MRS broth not treated with a strain was used as a negative control. After the reaction, OD515 was measured using a spectrophotometer and DPPH radical scavenging activity was calculated according to the following equation. DPPH radical scavenging activity (%)=[(Absorbance of control to which sample was not added)−(Absorbance of group to which sample was added)]/(Absorbance of control to which sample was not added) […] The experiment was conducted 3 times and the average value was obtained.

B16 melanoma cells = test: B16 melanoma cell melanin assay (melanogenesis inhibiting ability); type: cell-based; details: 100 ppm sample, 200 nM a-MSH; for extracellular OD475 / extracellular melanin / extracellular melanin, % of control / melanin/protein: replicates 1-3
Protocol: Skin-whitening effect was evaluated as described below. B16 melanoma cells were seeded onto a 12-well plate at a density of 1.5×10^5 cells per well. DMEM (Dulbeco's modified Eagle's medium) supplemented with 10% fetal bovine serum was used and the cells were cultured for 24 hours (10% CO2, 37° C.). The 12-well plate onto which the B16 melanoma cells were seeded was treated with 200 nM melanocyte-stimulating hormone (MSH) and then the 12-well plate was treated with each sample (25, 50, 100 and 200 ppm). The test groups were: a group treated with sonicated identified strain (LBS sonication), a group treated with heat-killed identified strain (LBS heat), and a group treated with cultural filtrate of the identified strain (culture). […] The cells treated with nothing were used as a negative control group and those treated only with MSH was used as a vehicle group. After the treatment, the cell culture (extracellular melanin) was transferred to a 96-well plate and absorbance was measured at 475 nm. […] The calculated melanin content was normalized to the total protein content for each group and the melanogenesis inhibiting ability was evaluated by comparing with the control groups. The experiment was repeated 3 times.

SMILES	DPPH radical scavenging activity (DPPH assay)	extracellular melanin, % of control (average of 3) (B16 melanoma cells)	extracellular OD475 (B16 melanoma cells)	extracellular melanin (B16 melanoma cells)	extracellular melanin, % of control (B16 melanoma cells)	melanin/protein (B16 melanoma cells)
O=C1O[C@H]([C@@H](O)CO)C(O)=C1O [L-ascorbic acid]	about 7%	–	–	–	–	–
OC[C@H]1O[C@@H](Oc2ccc(O)cc2)[C@H](O)[C@@H](O)[C@@H]1O [arbutin]	–	111.1 % of control	0.281 and 0.252 and 0.274	138.50 ppm and 124.00 ppm and 135.00 ppm	116.8 % of control and 106.1 % of control and 110.5 % of control	214.2 µg/mg and 194.5 µg/mg and 202.6 µg/mg
O=c1cc(CO)occ1O [kojic acid]	–	67.3 % of control	0.163	68.00 ppm and 70.00 ppm and 79.50 ppm	65.1 % of control and 65.3 % of control and 71.5 % of control	119.4 µg/mg and 119.7 µg/mg and 131.2 µg/mg
